Target: T1, Lyn (Homo sapiens, UniProt P07948)
T1 construct: endogenous Lyn in BL2 cells
Test: western blot of P-Lyn (Y396) in anti-IgM stimulated BL2 cells, […] for […] h
Format: cell-based

T1 sequence (P07948 2-512): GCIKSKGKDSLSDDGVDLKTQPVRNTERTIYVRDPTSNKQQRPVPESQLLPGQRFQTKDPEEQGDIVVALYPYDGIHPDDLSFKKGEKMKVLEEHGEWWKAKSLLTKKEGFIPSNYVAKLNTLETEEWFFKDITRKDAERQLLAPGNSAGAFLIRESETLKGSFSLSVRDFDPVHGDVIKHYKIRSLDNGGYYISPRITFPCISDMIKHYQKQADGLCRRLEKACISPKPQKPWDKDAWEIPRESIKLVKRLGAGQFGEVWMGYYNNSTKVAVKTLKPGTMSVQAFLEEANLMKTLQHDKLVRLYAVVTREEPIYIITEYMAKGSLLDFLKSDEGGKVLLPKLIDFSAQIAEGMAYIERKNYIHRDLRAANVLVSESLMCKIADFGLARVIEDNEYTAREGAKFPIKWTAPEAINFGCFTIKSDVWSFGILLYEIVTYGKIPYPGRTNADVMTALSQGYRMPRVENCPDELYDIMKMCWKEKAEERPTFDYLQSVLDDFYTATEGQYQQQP

Cc1nc(Nc2ncc(C(=O)Nc3c(C)cccc3Cl)s2)cc(N2CCN(CCO)CC2)n1 [dasatinib]
western blot of P-Lyn (Y396) in anti-IgM stimulated BL2 cells, 0.1 or 1.0 μM for: Dasatinib and ibrutinib selectively inhibited their respective targets as measured using anti-P-Lyn, anti-P-SFKs, and anti-P-BTK antibodies

Source: publication PMC7582192, “Targeting N-myristoylation for therapy of B-cell lymphomas” (Nature Communications, 2020)
